{"source": "patent US9206212B2", "about": "“Actinomycete strain composition and its use” (CENTRE NATIONAL DE LA RECHERCHE SCIENTIFIQUE, priority 2011, dated 2015)", "key": {"[1]": {"system": "Streptomyces sp. BG76", "assay": "Antibiotic sensibility of the strain", "assay_type": "cell-based", "design": "key to Antibiotic sensibility: S: sensitive; R: resistant", "settings": "for Antibiotic sensibility: amount given with each antibiotic (30 μg, 300 U, 10 μg, 10 U, 250 μg)"}, "[2]": {"system": "Bacillus subtilis ATCC 9524 (BS)", "assay": "Antimicrobial bioassay, paper filter disk technique (agar diffusion)", "assay_type": "cell-based", "description": "(§1) The retention time of the main peaks D1 and D2 were 15.62 and 17.99 min, respectively. These fractions were checked again for both activities with mineral phosphate solubilization test and anti microbial bioassay, against ML, BS, PU and MR using the paper filter disk technique.\n(§2) The purified Viridomycin (compound 1) was checked for anti microbial bioassay, against Micrococcus luteus ATCC 381 (ML), Bacillus subtilis ATCC 9524 (BS) and the phytopathogenic fungi Pythium ultimum (PU) and Mucor ramannianus NRRL 1829 (MR) using the paper filter disk technique."}, "[3]": {"system": "Micrococcus luteus ATCC 381 (ML)", "assay": "Antimicrobial bioassay, paper filter disk technique (agar diffusion)", "assay_type": "cell-based", "description": "as §1, §2"}, "[4]": {"system": "Mucor ramannianus NRRL 1829 (MR)", "assay": "Antimicrobial bioassay, paper filter disk technique (agar diffusion)", "assay_type": "cell-based", "description": "as §1, §2"}, "[5]": {"system": "Pythium ultimum (PU)", "assay": "Antimicrobial bioassay, paper filter disk technique (agar diffusion)", "assay_type": "cell-based", "description": "as §1, §2"}, "[6]": {"assay": "Mineral phosphate solubilization test"}, "[7]": {"assay": "Mineral phosphate solubilization test", "remark": "listed apart in the source"}, "[8]": {"assay": "Solubility of the antibiotic", "assay_type": "physicochemical", "settings": "methanol and water"}, "[9]": {"settings": "filter disc i.d. 6 mm, c = 20 μg/mL, 20 μL/disc"}, "[10]": {"settings": "HPLC peak of fraction D, FIG. 4"}, "[11]": {"settings": "purified Compound 1 at final concentration 98.5 mg·mL^−1"}}, "note": "Where a SMILES comes first, the peptide text is derived from it. Bridges are numbered along the chain shown (N, C = ends). [ ]: non-standard residue; d: D form. The star is where a group is joined. Ileψ(thiazoline)Cys = CC[C@H](C)[C@H](N)C1=N[C@H](C(=O)*)CS1; dOrn = NCCC[C@@H](N)C(=O)O", "data": [{"compound": "CC[C@H](C)[C@H](N)C1=N[C@H](C(=O)N[C@@H](CC(C)C)C(=O)N[C@H](CCC(=O)O)C(=O)N[C@H](C(=O)N[C@H]2CCCCNC(=O)[C@H](CC(N)=O)NC(=O)[C@@H](CC(=O)O)NC(=O)[C@H](Cc3cnc[nH]3)NC(=O)[C@@H](Cc3ccccc3)NC(=O)[C@H]([C@@H](C)CC)NC(=O)[C@@H](CCCN)NC2=O)[C@@H](C)CC)CS1", "note": "[Bacitracine] ({Ileψ(thiazoline)Cys}-L[dE]IK[dOrn]I[dF]H[dD]N; lactam 4-C)", "values": [{"measurement": "Sensitivity of the strain to the antibiotic (in words)", "setting": "[1]", "value": "sensitive"}, {"measurement": "Antibiotic sensibility", "setting": "[1]", "value": "S"}]}, {"compound": "CC(=O)OCC1=C(C(=O)O)N2C(=O)[C@@H](NC(=O)Cc3cccs3)[C@H]2SC1", "note": "[Cefalotin]", "values": [{"measurement": "Sensitivity of the strain to the antibiotic (in words)", "setting": "[1]", "value": "sensitive"}, {"measurement": "Antibiotic sensibility", "setting": "[1]", "value": "S"}]}, {"compound": "CO[C@@H]1[C@@H](OC(N)=O)[C@@H](O)[C@H](Oc2ccc3c(O)c(NC(=O)c4ccc(O)c(CC=C(C)C)c4)c(=O)oc3c2C)OC1(C)C", "note": "[Novobiocine]", "values": [{"measurement": "Sensitivity of the strain to the antibiotic (in words)", "setting": "[1]", "value": "sensitive"}, {"measurement": "Antibiotic sensibility", "setting": "[1]", "value": "S"}]}, {"compound": "NS(N)(=O)=O", "note": "[Sulfamides]", "values": [{"measurement": "Sensitivity of the strain to the antibiotic (in words)", "setting": "[1]", "value": "resistant"}, {"measurement": "Antibiotic sensibility", "setting": "[1]", "value": "R"}]}, {"compound": "Gentamycine", "values": [{"measurement": "Sensitivity of the strain to the antibiotic (in words)", "setting": "[1]", "value": "sensitive"}, {"measurement": "Antibiotic sensibility", "setting": "[1]", "value": "S"}]}, {"compound": "Polymyxin B", "values": [{"measurement": "Sensitivity of the strain to the antibiotic (in words)", "setting": "[1]", "value": "sensitive"}, {"measurement": "Antibiotic sensibility", "setting": "[1]", "value": "S"}]}, {"compound": "Tris (3-imino-4-oxo-cyclohexa-1,5-diene-carbaldehydro) iron (III) [Compound 1]", "values": [{"measurement": "Diameter of microbial growth inhibition zone", "setting": "[2]; [9]", "value": 29, "unit": "mm"}, {"measurement": "Antimicrobial activity (in words)", "setting": "[2]; on the standard media", "value": "inhibited"}, {"measurement": "Diameter of microbial growth inhibition zone", "setting": "[3]; [9]", "value": 45, "unit": "mm"}, {"measurement": "Antimicrobial activity (in words)", "setting": "[3]; on the standard media", "value": "inhibited"}, {"measurement": "Diameter of microbial growth inhibition zone", "setting": "[4]; [9]", "value": 38, "unit": "mm"}, {"measurement": "Antimicrobial activity (in words)", "setting": "[4]; on the standard media", "value": "inhibited"}, {"measurement": "Diameter of microbial growth inhibition zone", "setting": "[5]; [9]", "value": 27, "unit": "mm"}, {"measurement": "Antimicrobial activity (in words)", "setting": "[5]; on the standard media", "value": "inhibited"}, {"measurement": "Mineral phosphate solubilization activity (in words)", "setting": "[6]; [10]", "value": "mineral phosphate solubilization activities"}, {"measurement": "Concentration of solubilized Phosphate from RP", "setting": "[6]; [11]", "value": 63.7, "unit": "µg/mL"}, {"measurement": "Mineral phosphate solubilization activity (in words)", "setting": "[7]; [10]", "value": "mineral phosphate solubilization activities"}, {"measurement": "Concentration of solubilized Phosphate from TC", "setting": "[7]; [11]", "value": 135.2, "unit": "µg/mL"}, {"measurement": "Solubility", "setting": "[8]", "value": "soluble in methanol and water"}]}]}
